# In ChEMBL document CHEMBL1201862, “PubChem BioAssay data set” (2004):
# Calls of active or inactive are those of the source.
# How the values were obtained:
# [1] = target: Neuropeptide Y receptor type 1 (Homo sapiens, UniProt P25929); format: functional;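 also: HEK293 cells with a CNG channel challenged with NPY then isoproterenol; potency as antagonist that reverses NPY suppression of cAMP signal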
# [2] = inhibitors of intracellular T. cruzi replication, confirmation, NIH3T3 host cells, beta-gal luminescence (AID 2044); format: functional, cell-based;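 also: intracellular parasites grown in NIH/3T3 mouse fibroblasts as host cells; luminescent beta-galactosidase reporter signal from transgenic T. cruzi replicating inside host cells; inhibitors lower the luminescence signal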
# [3] = target: Neuropeptide Y receptor type 2 (Homo sapiens, UniProt P49146); format: functional, cell-based;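 also: HEK293 cells expressing the receptor and a CNG channel; stimulus was NPY near EC95 followed by isoproterenol to raise cAMP; antagonist potency measured as restoring cAMP signal that NPY suppresses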
# Chain of Neuropeptide Y receptor type 2 (P49146 whole entry): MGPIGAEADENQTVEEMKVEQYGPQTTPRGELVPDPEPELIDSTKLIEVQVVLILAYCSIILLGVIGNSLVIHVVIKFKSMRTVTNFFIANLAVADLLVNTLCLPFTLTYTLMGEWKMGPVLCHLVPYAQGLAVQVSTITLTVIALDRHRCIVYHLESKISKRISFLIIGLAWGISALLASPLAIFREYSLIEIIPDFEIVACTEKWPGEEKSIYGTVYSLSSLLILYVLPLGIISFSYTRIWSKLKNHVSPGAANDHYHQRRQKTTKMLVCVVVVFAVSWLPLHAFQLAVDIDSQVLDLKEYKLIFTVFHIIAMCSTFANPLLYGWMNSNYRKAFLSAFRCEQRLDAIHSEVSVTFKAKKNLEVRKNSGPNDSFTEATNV
# [4] = growth suppression of PTEN-null colon cells, dose response, cell-based, HCT116 PTEN knockout (AID 1047); format: functional;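 also: HCT116 colon tumor cells with PTEN knocked out; cells exposed to compound for 60 hours before readout; potency for loss of cell viability measured by luminescence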
# [5] = cytotoxicity toward NIH3T3 fibroblasts, dose response, counter-screen, cell-based, ATP luminescence, mouse fibroblasts (AID 2010); format: functional;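 also: cells exposed to compound for about 90 hours before reading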
# [6] = growth suppression of beta-catenin-knockout colon cells, dose response, cell-based, HCT116, human colon tumor (AID 1045); format: functional;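 also: HCT116 colon tumor cells with beta catenin knocked out; cells exposed to compound for 60 hours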
# [7] = target: RNA-editing ligase 1, mitochondrial (Trypanosoma brucei brucei, UniProt P86926); test: TbREL1 ligase inhibitors, dose response, biochemical, fluorescence, Trypanosoma brucei (AID 1117295); format: functional
# Chain of RNA-editing ligase 1, mitochondrial (P86926 whole entry): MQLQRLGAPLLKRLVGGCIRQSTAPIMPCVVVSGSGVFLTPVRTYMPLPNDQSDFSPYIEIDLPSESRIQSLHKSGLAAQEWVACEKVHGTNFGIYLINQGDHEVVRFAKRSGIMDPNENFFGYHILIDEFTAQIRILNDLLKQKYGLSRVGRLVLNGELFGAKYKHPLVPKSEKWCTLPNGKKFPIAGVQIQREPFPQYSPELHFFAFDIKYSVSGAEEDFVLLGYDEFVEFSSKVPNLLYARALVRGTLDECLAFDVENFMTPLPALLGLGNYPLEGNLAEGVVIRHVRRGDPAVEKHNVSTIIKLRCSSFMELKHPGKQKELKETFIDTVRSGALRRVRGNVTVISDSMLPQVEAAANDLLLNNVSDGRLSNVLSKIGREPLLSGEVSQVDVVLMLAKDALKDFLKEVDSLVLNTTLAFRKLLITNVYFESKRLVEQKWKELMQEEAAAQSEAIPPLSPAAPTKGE
# [8] = system: Streptococcus sp. 'group A'; test: growth inhibition of control SK(-) GAS strain, dose response, counter-screen for streptokinase expression inhibitor project, luminescence, kanamycin, BacTiterGlo, confirmation (AID 1900); format: functional, organism-based
# Streptococcus [9] = test: Luminescence Microorganism-Based Dose Response Follow up to Identify Compounds Cytotoxic to Streptococcus. [Related pubchem assays: 1677 (Project Summary), 1915, 1914, 1902 (Retest at Dose), 1900 (Counter Screen), 1662 (Primary HTS)]; format: functional, organism-based
# Streptokinase A = target: T1, Streptokinase A (Streptococcus pyogenes serotype M1, UniProt P10520); test: S. pyogenes streptokinase expression inhibitors, potency, dose response, plasminogen activation absorbance, OD405 (AID 1914); format: functional, Streptococcus pyogenes M1 GAS;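 also: secreted streptokinase activity via plasminogen activation per viability signal from cell pellet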
# T1 sequence (P10520 whole entry): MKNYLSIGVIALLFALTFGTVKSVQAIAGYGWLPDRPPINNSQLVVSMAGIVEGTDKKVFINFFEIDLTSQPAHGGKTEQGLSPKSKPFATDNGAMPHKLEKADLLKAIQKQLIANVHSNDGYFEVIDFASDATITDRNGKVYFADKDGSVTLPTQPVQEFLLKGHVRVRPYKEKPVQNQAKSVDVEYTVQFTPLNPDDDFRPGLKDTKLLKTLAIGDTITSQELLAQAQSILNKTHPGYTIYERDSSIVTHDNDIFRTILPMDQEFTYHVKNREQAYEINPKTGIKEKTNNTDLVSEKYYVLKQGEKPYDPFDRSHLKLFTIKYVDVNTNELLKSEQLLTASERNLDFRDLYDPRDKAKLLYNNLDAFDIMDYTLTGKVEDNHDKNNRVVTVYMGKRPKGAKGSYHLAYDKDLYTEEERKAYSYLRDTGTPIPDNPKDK
# Streptococcus [10] = test: Group A Streptococcus viability loss, dose response, counter-screen for streptokinase expression inhibitor project, luminescence, BacTiterGlo (AID 1915); format: functional, organism-based;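 also: potency for reduction of bacterial viability or growth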
# [11] = Counterscreen for IDE inhibitors: Luminescence-based cell-based high throughput dose response assay to identify compounds that are cytotoxic to HEK cells. [Related pubchem assays: 434962 (Primary screen (IDE inhibitors in singlicate)), 449730 (Counterscreen (Cytotoxicity in triplicate)), 435028 (Confirmation (IDE inhibitors in triplicate)) …; format: functional; details: HEK293
# Insulin-degrading enzyme = target: T2, Insulin-degrading enzyme (Homo sapiens, UniProt P14735); test: Dose Response: Fluorescence polarization-based cell-based high throughput dose response assay for inhibitors of insulin-degrading enzyme (IDE). [Related pubchem assays: 434962 (Primary screen (IDE inhibitors in singlicate)), 449730 (Counterscreen (Cytotoxicity in triplicate)), 435028 (Confirmation (IDE inhibitors in triplicate)), 434984 (Summary …; format: functional
# T2 sequence (P14735 whole entry): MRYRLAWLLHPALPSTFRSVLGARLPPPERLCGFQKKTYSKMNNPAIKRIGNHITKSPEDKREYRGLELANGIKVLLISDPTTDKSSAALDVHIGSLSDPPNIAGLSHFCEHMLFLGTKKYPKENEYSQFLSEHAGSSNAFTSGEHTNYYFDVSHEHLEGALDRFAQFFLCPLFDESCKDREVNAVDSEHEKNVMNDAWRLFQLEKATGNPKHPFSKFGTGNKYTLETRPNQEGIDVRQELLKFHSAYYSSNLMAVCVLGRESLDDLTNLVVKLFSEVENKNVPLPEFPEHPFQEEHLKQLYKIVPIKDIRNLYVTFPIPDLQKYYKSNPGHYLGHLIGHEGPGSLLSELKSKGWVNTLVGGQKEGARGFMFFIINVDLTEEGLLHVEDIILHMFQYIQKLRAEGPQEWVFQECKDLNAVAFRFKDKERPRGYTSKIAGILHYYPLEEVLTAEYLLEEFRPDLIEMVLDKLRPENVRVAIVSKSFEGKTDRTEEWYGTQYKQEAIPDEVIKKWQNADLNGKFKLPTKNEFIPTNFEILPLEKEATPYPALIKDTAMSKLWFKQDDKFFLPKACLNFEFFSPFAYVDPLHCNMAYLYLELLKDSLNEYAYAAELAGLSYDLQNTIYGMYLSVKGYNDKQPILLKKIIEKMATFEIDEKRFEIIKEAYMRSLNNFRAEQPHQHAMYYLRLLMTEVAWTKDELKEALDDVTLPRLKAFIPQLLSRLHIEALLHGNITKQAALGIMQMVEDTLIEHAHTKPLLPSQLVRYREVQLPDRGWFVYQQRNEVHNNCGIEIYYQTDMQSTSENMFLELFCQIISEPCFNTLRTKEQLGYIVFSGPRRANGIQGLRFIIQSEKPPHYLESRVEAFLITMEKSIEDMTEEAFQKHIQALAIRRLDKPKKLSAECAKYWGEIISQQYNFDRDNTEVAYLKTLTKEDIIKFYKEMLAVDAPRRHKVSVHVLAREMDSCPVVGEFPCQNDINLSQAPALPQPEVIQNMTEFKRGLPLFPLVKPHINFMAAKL
# Protein skinhead-1 = target: T3, Protein skinhead-1 (Caenorhabditis elegans, UniProt P34707); format: functional
# T3 sequence (P34707 whole entry): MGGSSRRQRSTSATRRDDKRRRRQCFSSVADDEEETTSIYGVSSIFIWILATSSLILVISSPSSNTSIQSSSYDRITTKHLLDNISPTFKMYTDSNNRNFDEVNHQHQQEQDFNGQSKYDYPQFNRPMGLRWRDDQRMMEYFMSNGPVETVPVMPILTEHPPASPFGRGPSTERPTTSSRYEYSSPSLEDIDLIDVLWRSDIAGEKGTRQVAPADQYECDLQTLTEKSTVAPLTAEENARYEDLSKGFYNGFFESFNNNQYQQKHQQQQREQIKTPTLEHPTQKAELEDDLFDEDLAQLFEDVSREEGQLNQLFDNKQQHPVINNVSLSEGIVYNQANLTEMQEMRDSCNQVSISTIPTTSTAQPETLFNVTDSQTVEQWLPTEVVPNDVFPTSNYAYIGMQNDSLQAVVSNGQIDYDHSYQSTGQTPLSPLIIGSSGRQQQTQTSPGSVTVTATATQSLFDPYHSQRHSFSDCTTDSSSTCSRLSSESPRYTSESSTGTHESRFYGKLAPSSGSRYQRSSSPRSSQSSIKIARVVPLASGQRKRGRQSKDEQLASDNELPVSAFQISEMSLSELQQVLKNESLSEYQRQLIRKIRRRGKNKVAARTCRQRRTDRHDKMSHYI
# [12] = target: Melanin-concentrating hormone receptor 1 (Homo sapiens, UniProt Q99705); test: Fluorescence-based counterscreen for antagonists of the G-protein coupled receptor 7 (GPR7): cell-based high throughput dose response assay to identify antagonists of the melanin-concentrating hormone receptor 1 (MCHR1).; format: functional
# Chain of Melanin-concentrating hormone receptor 1 (Q99705 whole entry): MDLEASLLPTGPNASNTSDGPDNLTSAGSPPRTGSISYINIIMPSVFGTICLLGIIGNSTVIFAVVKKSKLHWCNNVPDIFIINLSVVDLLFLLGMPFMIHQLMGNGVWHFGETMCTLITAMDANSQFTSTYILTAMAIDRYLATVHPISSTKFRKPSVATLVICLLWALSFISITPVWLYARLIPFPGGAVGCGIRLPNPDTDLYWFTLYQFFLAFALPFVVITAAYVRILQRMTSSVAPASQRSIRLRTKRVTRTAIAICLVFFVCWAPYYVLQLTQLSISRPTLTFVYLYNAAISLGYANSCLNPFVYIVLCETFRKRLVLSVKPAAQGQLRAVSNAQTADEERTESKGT
# [13] = target: Luciferin 4-monooxygenase (Photinus pyralis, UniProt P08659); test: firefly luciferase enzyme inhibitors, dose response, biochemical, luminescence (AID 1891)
# Chain of Luciferin 4-monooxygenase (P08659 whole entry): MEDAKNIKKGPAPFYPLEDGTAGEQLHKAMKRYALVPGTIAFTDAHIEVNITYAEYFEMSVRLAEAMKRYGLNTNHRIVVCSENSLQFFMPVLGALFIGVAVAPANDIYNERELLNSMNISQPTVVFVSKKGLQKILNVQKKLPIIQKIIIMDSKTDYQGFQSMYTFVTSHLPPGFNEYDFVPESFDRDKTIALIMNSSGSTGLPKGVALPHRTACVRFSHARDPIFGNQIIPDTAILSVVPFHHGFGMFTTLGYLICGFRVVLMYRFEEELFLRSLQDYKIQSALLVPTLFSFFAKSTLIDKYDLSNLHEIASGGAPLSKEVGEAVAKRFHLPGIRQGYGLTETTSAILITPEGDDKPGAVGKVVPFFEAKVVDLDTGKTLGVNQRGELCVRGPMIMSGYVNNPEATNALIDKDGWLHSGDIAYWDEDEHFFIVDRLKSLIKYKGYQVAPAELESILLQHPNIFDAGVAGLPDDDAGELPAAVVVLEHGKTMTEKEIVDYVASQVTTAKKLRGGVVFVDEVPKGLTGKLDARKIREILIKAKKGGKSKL
# [14] = Luminescence Cell-Based Dose Confirmation HTS to Identify Inhibitors of Platelet Dense Granule Release. [Related pubchem assays: 1663 (Primary HTS), 1678 (Summary of Project)]; format: functional
# [15] = target: T4, Mannose-6-phosphate isomerase (Homo sapiens, UniProt P34949); test: inhibitors of human PMI, primary screen, biochemical, fluorescence intensity, coupled assay (AID 1209)
# T4 sequence (P34949 whole entry): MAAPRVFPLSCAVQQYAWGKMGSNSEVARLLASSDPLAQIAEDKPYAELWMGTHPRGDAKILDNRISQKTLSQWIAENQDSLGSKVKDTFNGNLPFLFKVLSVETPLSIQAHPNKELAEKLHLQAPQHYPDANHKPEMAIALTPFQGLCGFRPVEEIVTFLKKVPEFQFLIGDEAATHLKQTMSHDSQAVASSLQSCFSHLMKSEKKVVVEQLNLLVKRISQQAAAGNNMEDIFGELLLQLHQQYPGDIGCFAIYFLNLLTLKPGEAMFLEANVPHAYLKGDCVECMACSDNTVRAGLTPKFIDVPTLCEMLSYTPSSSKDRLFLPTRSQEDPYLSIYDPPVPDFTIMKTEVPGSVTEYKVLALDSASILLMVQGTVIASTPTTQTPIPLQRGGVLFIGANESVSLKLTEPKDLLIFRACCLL
# [16] = target: T4, Mannose-6-phosphate isomerase; test: human PMI inhibitors, high substrate, primary screen, biochemical, fluorescence intensity, high mannose 6-phosphate (AID 1220)
# [17] = target: T5, Replicative DNA helicase DnaB (Mycobacterium tuberculosis, UniProt P9WMR3); test: DnaB intein splicing inhibitors, dose response, biochemical, cell-free fluorescence (AID 449749); format: functional
# T5 sequence (P9WMR3 whole entry): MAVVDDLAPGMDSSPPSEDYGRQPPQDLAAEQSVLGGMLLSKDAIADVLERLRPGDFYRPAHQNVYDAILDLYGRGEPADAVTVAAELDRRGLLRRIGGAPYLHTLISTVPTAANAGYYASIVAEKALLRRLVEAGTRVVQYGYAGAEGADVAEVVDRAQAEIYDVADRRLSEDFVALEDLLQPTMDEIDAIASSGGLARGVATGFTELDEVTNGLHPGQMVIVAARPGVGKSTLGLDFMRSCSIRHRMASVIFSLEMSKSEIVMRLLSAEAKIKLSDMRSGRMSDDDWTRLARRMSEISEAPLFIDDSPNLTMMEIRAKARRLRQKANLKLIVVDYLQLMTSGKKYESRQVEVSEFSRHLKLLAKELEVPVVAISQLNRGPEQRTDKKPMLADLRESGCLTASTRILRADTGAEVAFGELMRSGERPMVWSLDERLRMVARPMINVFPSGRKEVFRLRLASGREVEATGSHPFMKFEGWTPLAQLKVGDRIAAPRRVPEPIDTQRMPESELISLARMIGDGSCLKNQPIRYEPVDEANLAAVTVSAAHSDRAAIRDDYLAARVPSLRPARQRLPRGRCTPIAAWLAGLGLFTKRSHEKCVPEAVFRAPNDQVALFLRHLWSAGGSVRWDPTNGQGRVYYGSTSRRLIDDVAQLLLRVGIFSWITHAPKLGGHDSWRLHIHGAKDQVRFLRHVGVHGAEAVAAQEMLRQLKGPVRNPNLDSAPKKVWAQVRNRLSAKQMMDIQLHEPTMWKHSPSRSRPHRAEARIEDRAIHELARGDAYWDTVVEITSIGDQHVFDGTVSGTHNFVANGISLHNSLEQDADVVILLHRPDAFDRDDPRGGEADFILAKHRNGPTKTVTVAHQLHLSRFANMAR
# Protein RecA = target: T6, Protein RecA (Mycobacterium tuberculosis, UniProt P9WHJ3); test: Fluorescence Cell-Free Homogeneous Dose Retest to Identify Inhibitors of RecA-Intein Splicing Activity. [Related pubchem assays (depositor defined):AID2097, AID2223, AID489010, AID492950]; format: functional
# T6 sequence (P9WHJ3 whole entry): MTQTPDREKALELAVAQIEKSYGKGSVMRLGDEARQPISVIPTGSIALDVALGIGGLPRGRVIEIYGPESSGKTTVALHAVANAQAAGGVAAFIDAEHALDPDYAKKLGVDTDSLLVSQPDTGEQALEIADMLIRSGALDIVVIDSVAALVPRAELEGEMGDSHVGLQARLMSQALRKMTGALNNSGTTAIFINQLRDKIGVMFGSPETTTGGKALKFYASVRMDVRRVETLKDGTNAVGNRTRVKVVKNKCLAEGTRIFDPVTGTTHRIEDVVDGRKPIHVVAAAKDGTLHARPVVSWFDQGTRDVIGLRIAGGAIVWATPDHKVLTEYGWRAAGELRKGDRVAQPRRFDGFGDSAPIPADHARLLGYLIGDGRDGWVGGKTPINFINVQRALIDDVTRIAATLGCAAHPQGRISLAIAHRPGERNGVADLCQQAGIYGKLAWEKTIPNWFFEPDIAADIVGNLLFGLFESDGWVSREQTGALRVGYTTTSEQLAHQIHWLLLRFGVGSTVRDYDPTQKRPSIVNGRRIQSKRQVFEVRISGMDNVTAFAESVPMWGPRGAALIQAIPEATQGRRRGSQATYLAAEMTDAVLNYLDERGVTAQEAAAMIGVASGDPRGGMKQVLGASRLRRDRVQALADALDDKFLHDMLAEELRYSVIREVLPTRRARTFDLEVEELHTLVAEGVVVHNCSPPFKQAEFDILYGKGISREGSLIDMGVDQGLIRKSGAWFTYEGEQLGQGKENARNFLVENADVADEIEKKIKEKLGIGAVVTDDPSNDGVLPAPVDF
# Genome polyprotein = Genome polyprotein (dengue virus type 2, UniProt P29990); test: Dengue-2 NS5 methyltransferase inhibitors, primary screen, biochemical, confirmation dose response (AID 588689); format: functional
# Chain of Genome polyprotein (P29990 2492-3391 limits assumed): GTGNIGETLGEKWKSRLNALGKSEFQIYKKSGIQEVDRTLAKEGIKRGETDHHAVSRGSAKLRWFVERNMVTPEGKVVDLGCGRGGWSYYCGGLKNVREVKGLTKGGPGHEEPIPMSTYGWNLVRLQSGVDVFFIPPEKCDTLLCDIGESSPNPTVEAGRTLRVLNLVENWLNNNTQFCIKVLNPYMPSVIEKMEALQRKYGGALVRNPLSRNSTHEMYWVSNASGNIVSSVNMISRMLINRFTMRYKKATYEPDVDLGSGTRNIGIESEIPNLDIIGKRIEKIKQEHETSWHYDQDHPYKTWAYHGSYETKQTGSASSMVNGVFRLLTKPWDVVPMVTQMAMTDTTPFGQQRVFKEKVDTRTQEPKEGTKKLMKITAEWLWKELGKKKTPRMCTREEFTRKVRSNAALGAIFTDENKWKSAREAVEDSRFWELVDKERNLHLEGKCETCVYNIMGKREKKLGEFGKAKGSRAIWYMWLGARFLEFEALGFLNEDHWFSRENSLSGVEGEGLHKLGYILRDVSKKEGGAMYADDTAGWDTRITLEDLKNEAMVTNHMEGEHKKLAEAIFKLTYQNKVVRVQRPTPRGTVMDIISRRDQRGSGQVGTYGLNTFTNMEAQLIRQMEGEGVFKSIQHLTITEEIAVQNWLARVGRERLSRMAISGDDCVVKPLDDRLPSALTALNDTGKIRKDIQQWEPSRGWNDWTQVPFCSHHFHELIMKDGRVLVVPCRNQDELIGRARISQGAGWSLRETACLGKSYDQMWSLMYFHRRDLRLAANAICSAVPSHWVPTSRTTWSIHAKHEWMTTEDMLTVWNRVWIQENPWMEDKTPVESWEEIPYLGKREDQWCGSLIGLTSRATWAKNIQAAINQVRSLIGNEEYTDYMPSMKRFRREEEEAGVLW
# Chain of Neuropeptide Y receptor type 1 (P25929 whole entry): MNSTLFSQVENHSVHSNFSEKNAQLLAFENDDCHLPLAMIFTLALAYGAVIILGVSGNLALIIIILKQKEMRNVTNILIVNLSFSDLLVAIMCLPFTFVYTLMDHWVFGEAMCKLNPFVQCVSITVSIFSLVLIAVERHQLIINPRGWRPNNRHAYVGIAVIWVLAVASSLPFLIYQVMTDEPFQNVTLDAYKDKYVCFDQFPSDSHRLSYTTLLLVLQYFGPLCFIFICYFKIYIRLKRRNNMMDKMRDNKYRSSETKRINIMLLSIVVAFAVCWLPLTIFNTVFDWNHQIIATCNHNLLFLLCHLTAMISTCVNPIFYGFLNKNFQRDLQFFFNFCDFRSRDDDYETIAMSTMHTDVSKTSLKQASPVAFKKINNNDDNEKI
structure (smiles),measurement,setting,value
Cc1cc(Cl)c(OCCCNCc2ccccc2)c(Br)c1,IC50,[1],5.39 µM (active)
same,EC50,[2],1.86 µM (active)
same,IC50,[3],5.15 µM (active)
same,EC50,[4],21.9 µM (active)
same,EC50,[5],14.3 µM (active)
same,EC50,[6],16.5 µM (active)
same,IC50,[7],> 96.6 µM (inactive)
Cc1noc(C)c1CSc1nc2sc(C)c(C)c2c(=O)n1C1CCCC1,EC50,[8],5.22 µM (active)
same,EC50,Streptococcus [9],> 500 µM (not active)
same,EC50,Streptokinase A,3.31 µM (active)
same,EC50,Streptococcus [10],> 150 µM (not active)
CC(OC(=O)/C(C#N)=C/c1ccc(N(C)C)cc1)C(=O)N(C)c1ccccc1 (stereo not given),IC50,[11],40.3 µM (not active)
same,IC50,Insulin-degrading enzyme,21.4 µM (not active)
same,IC50,Protein skinhead-1,> 100 µM (inactive)
CC(C)Cc1cc(C(=O)N2CCCC(CO)(Cc3ccc(F)cc3F)C2)[nH]n1 (stereo not given),IC50,[12],33 µM (not active)
Cc1ccc(-c2cc(C(=O)Nc3ccc4c(c3)OCCO4)c3ccccc3n2)cc1,IC50,[1],5.01 µM (active)
same,EC50,[13],1.06 µM (active)
same,EC50,[14],16.9 µM (active)
same,IC50,[3],5.35 µM (active)
O=C(CSc1ccccc1)N1c2ccccc2Sc2ccccc21,EC50,Streptococcus [9],239 µM (active)
Cn1c(/N=C/c2c(O)ccc3ccccc23)nc2ccccc21,IC50,[15],> 50 µM (not active)
same,IC50,[16],14.8 µM (active)
same,AC50,[17],7.16 µM (active)
same,EC50,Protein RecA,5.19 µM (active)
same,IC50,Genome polyprotein,9.6 µM (active)
